Laboratory results reported in patent publication US9000162B2, “5,8-difluoro-4-(2-(4-(heteroaryloxy)-phenyl)ethylamino)quinazolines and their use as agrochemicals” (Dow AgroSciences LLC, priority 2008, dated 2015).

Tests used:
Format in all cases: in vivo
[1] = system: Septoria tritici (SEPTTR); assay: Septoria blotch of wheat foliar protectant test; details: Zymoseptoria tritici, read-out: Activity against fungal diseases SEPTTR; for pest or weed control at 25 ppm: foliar, Tested at 25 ppm (footnote b); for pest or weed control at 200 ppm: 200 ppm foliar, inoculated one day after treatment
Procedure: (§1) The plants were inoculated with the fungus one day after treatment. ***=80-100% control; **=50-79% control; *=0-49% control. It will be understood by those in the art that the efficacy of the compounds against the foregoing fungi establishes the general utility of the compounds as fungicides. The activity of the compounds as effective fungicides was determined by applying the compounds to plants and observing control of fungal disease. […] All plants were inoculated with spores of the fungus the day after treatment, then incubated in an environment conducive to disease development. Disease severity was evaluated 4 to 25 days later, depending on the speed of disease development. The following experiments were performed in the laboratory to determine the fungicidal efficacy of the compounds of the invention. […] Each pot contained 3-10 seedlings. These plants were sprayed until wet with the formulated test compound. On the following day, the leaves were inoculated with an aqueous spore suspension of Septoria tritici and the plants were kept in high humidity (one day in a dark dew chamber followed by three days in a lighted dew chamber) to permit spores to germinate and infect the leaf. The plants were then transferred to a greenhouse until disease developed on untreated control plants. Table 1 presents the activity of typical compounds of the present invention when evaluated in these experiments. The effectiveness of the test compounds at controlling disease when sprayed on leaves was determined by assessing the severity of disease on treated plants, then converting the severity to percent control based on the level of disease on untreated, inoculated plants.

[2] = system: Puccinia recondita tritici (PUCCRT); assay: Leaf rust of wheat foliar protectant test; details: 200 ppm foliar, inoculated one day after treatment, read-out: Activity against fungal diseases PUCCRT
Procedure: as §1, with “3-8” for “3-10”, “compounds.” for “compound.”, “Puccinia recondita” for “Septoria”, “overnight” for “(one day in a dark dew chamber followed by three days in a lighted dew chamber)”

[3] = system: Magnaporthe grisea = Pyricularia oryzae (PYRIOR); assay: whole plant or invertebrate; details: foliar, read-out: Activity against fungal diseases PYRIOR
[4] = system: Pseudoperonospora cubensis (PSPECU); assay: Cucumber downy mildew foliar protectant test; details: 200 ppm foliar, inoculated one day after treatment, read-out: Activity against fungal diseases PSPECU
Procedure: The plants were inoculated with the fungus one day after treatment. ***=80-100% control; **=50-79% control; *=0-49% control. It will be understood by those in the art that the efficacy of the compounds against the foregoing fungi establishes the general utility of the compounds as fungicides. The activity of the compounds as effective fungicides was determined by applying the compounds to plants and observing control of fungal disease. […] All plants were inoculated with spores of the fungus the day after treatment, then incubated in an environment conducive to disease development. Disease severity was evaluated 4 to 25 days later, depending on the speed of disease development. The following experiments were performed in the laboratory to determine the fungicidal efficacy of the compounds of the invention. Cucumber Downy Mildew (Causal Agent Pseudoperonospora cubensis; Bayer Code […]): Cucumber plants (variety “Bush Champion' or 'Bush Pickle Hybrid') were grown from seed in a soil-less peat-based potting mixture (Metromix) until the first true leaf was 20-80% expanded. Each pot contained 1 seedling. These plants were sprayed until wet with the formulated test compound. On the following day, the leaves were inoculated with an aqueous suspension of downy mildew sporangia and the plants were kept in high humidity for one day to permit sporangia to germinate and infect the leaf. The plants were then incubated in a growth chamber until disease developed on untreated control plants. Table 1 presents the activity of typical compounds of the present invention when evaluated in these experiments. The effectiveness of the test compounds at controlling disease when sprayed on leaves was determined by assessing the severity of disease on treated plants, then converting the severity to percent control based on the level of disease on untreated, inoculated plants.

For `Cc1cc(CCNc2ncnc3c(F)ccc(F)c23)ccc1Oc1ccncc1C(F)(F)F` [Compound 37], the pest or weed control at 25 ppm [1] was 50 to 79%, the pest or weed control at 200 ppm [2] was 80 to 100% and the pest or weed control at 3 ppm [3] was 80 to 100%. It also gave a pest or weed control at 200 ppm [4] of 80 to 100%.

In the case of `Fc1cc(CCNc2ncnc3c(F)ccc(F)c23)ccc1Oc1cc(C(F)(F)F)ncn1` [Compound 132], the pest or weed control at 200 ppm [1] is reported as 80 to 100%, the pest or weed control at 200 ppm [2] is reported as 80 to 100% and the pest or weed control at 200 ppm [3] is reported as 80 to 100%. It also gave a pest or weed control at 200 ppm [4] of 80 to 100%.

`COc1cc(C(F)(F)F)cc(Oc2ccc(CCNc3ncnc4c(F)ccc(F)c34)cc2C)n1` [Compound 29] was tested, and the pest or weed control at 200 ppm [1] was 80 to 100%, the pest or weed control at 200 ppm [2] was 80 to 100% and the pest or weed control at 200 ppm [3] was 50 to 79%. It also gave a pest or weed control at 200 ppm [4] of 80 to 100%.

Compound `Cc1cc(CCNc2ncnc3c(F)ccc(F)c23)ccc1Oc1c(Cl)cnc(C(F)(F)F)c1Cl` [Compound 79] has a pest or weed control at 200 ppm [1] of 80 to 100%, a pest or weed control at 200 ppm [2] of 80 to 100% and a pest or weed control at 200 ppm [3] of 80 to 100%. For the same compound, the pest or weed control at 200 ppm [4] was 50 to 79%.

For `Fc1ccc(F)c2c(NCCc3ccc(Oc4cc(C(F)(F)F)ccn4)c(Br)c3)ncnc12` [Compound 39], the pest or weed control at 25 ppm [1] was 80 to 100%, the pest or weed control at 200 ppm [2] was 80 to 100% and the pest or weed control at 200 ppm [3] was 80 to 100%. For the same compound, the pest or weed control at 200 ppm [4] was 80 to 100%.

`Fc1ccc(F)c2c(NCCc3ccccc3)ncnc12` [Compound 94] gave a pest or weed control at 200 ppm [1] of 50 to 79%, a pest or weed control at 200 ppm [2] of 80 to 100% and a pest or weed control at 200 ppm [3] of 0 to 49%. For the same compound, the pest or weed control at 200 ppm [4] was 80 to 100%.

With `Fc1ccc(F)c2c(NCCc3ccc(Oc4cnccc4C(F)(F)F)cc3)ncnc12` [Compound 43] the pest or weed control at 200 ppm [1] was 80 to 100%, the pest or weed control at 200 ppm [2] was 80 to 100% and the pest or weed control at 200 ppm [3] was 50 to 79%. It also gave a pest or weed control at 200 ppm [4] of 80 to 100%.

`COc1cc(CCNc2ncnc3c(F)ccc(F)c23)ccc1Oc1ncc(F)c(C(F)(F)F)c1F` [Compound 53] was tested, and the pest or weed control at 200 ppm [1] was 80 to 100%, the pest or weed control at 200 ppm [2] was 80 to 100% and the pest or weed control at 200 ppm [3] was 80 to 100%. It also gave a pest or weed control at 200 ppm [4] of 80 to 100%.

In the case of `Cc1c(CCNc2ncnc3c(F)ccc(F)c23)ccc(Oc2cc(C(F)(F)F)ccn2)c1C` [Compound 26], the pest or weed control at 200 ppm [1] is reported as 80 to 100%, the pest or weed control at 200 ppm [2] is reported as 80 to 100% and the pest or weed control at 200 ppm [3] is reported as 50 to 79%. It also gave a pest or weed control at 200 ppm [4] of 80 to 100%.

With `Fc1ccc(F)c2c(NCCc3ccc(Oc4cc(C(F)(F)F)ccn4)c(Cl)c3)ncnc12` [Compound 90] the pest or weed control at 200 ppm [1] was 80 to 100%, the pest or weed control at 200 ppm [2] was 80 to 100% and the pest or weed control at 200 ppm [3] was 80 to 100%. The pest or weed control at 200 ppm [4] was 80 to 100%.

For `Fc1ccc(F)c2c(NCCc3ccc(Oc4ccncc4C(F)(F)F)cc3)ncnc12` [Compound 83], the pest or weed control at 200 ppm [1] was 80 to 100%, the pest or weed control at 200 ppm [2] was 80 to 100% and the pest or weed control at 200 ppm [3] was 80 to 100%. The pest or weed control at 200 ppm [4] was 80 to 100%.

Compound `Fc1cc(Oc2cc(C(F)(F)F)ncn2)ccc1CCNc1ncnc2c(F)ccc(F)c12` [Compound 116] has a pest or weed control at 25 ppm [1] of 80 to 100%, a pest or weed control at 200 ppm [2] of 80 to 100% and a pest or weed control at 200 ppm [3] of 80 to 100%. The pest or weed control at 200 ppm [4] was 80 to 100%.

Compound `COc1cc(CCNc2ncnc3c(F)ccc(F)c23)ccc1Oc1cc(C(C)(F)F)ccn1` [Compound 16] has a pest or weed control at 200 ppm [1] of 80 to 100%, a pest or weed control at 200 ppm [2] of 80 to 100% and a pest or weed control at 200 ppm [3] of 80 to 100%. It also gave a pest or weed control at 200 ppm [4] of 80 to 100%.

In the case of `Nc1c(F)c(F)nc(Oc2ccc(CCNc3ncnc4c(F)ccc(F)c34)cc2)c1F` [Compound 97], the pest or weed control at 200 ppm [1] is reported as 50 to 79%, the pest or weed control at 200 ppm [2] is reported as 80 to 100% and the pest or weed control at 200 ppm [3] is reported as 80 to 100%. It also gave a pest or weed control at 200 ppm [4] of 80 to 100%.

For `COc1cc(CCNc2ncnc3c(F)ccc(F)c23)ccc1Oc1nc(F)c(F)c(N)c1F` [Compound 98], the pest or weed control at 200 ppm [1] was 0 to 49%, the pest or weed control at 200 ppm [2] was 80 to 100% and the pest or weed control at 200 ppm [3] was 80 to 100%. For the same compound, the pest or weed control at 200 ppm [4] was 80 to 100%.

For `Fc1ccc(F)c2c(NCCc3ccc(Oc4ccnc(Cl)c4)cc3)ncnc12` [Compound 107], the pest or weed control at 25 ppm [1] was 80 to 100%, the pest or weed control at 200 ppm [2] was 80 to 100% and the pest or weed control at 200 ppm [3] was 80 to 100%. The pest or weed control at 200 ppm [4] was 80 to 100%.

In the case of `Oc1ccc(CCNc2ncnc3c(F)ccc(F)c23)cc1F` [Compound 47], the pest or weed control at 200 ppm [1] is reported as 0 to 49%, the pest or weed control at 200 ppm [2] is reported as 0 to 49% and the pest or weed control at 200 ppm [3] is reported as 50 to 79%. The pest or weed control at 200 ppm [4] was 0 to 49%.
